{"source": "ChEMBL document CHEMBL4725357", "about": "“Elucidating the Structural Requirement of Uridylpeptide Antibiotics for Antibacterial Activity” (J Med Chem, 2020)", "key": {"[1]": {"assay": "Inhibition of Staphylococcus aureus MraY using UDPMurNAc-dansylpentapeptide as substrate incubated for 3 hrs by fluorescence method"}, "Pseudomonas aeruginosa": {"test_system": "Pseudomonas aeruginosa", "assay": "Antibacterial activity against Pseudomonas aeruginosa PAO1 incubated for 18 hrs by CLSI based broth microdilution method", "format": "functional"}}}
{"smiles": "C[C@@H]([C@H](NC(=O)[C@H](CO)NC(=O)N[C@@H](Cc1c[nH]c2ccccc12)C(=O)O)C(=O)N/C=C1\\O[C@@H](n2ccc(=O)[nH]c2=O)[C@H](O)[C@@H]1O)N(C)C(=O)[C@@H](N)Cc1cccc(O)c1", "values": [{"measurement": "IC50", "setting": "[1]", "result": 1.8, "unit": "nM"}, {"measurement": "MIC", "setting": "Pseudomonas aeruginosa", "result": "> 128", "unit": "µg/mL"}]}
{"smiles": "C[C@@H]([C@H](NC(=O)[C@H](CCCNC(=N)N)NC(=O)N[C@@H](Cc1c[nH]c2ccccc12)C(=O)O)C(=O)N/C=C1\\O[C@@H](n2ccc(=O)[nH]c2=O)[C@H](O)[C@@H]1O)N(C)C(=O)[C@@H](N)Cc1cccc(O)c1", "values": [{"measurement": "IC50", "setting": "[1]", "result": 3.4, "unit": "nM"}, {"measurement": "MIC", "setting": "Pseudomonas aeruginosa", "result": "> 128", "unit": "µg/mL"}]}
{"smiles": "C[C@@H]([C@H](NC(=O)[C@H](CCC(=O)O)NC(=O)N[C@@H](Cc1c[nH]c2ccccc12)C(=O)O)C(=O)N/C=C1\\O[C@@H](n2ccc(=O)[nH]c2=O)[C@H](O)[C@@H]1O)N(C)C(=O)[C@@H](N)Cc1cccc(O)c1", "values": [{"measurement": "IC50", "setting": "[1]", "result": 3.3, "unit": "nM"}, {"measurement": "MIC", "setting": "Pseudomonas aeruginosa", "result": 128, "unit": "µg/mL"}]}
{"smiles": "C[C@@H]([C@H](NC(=O)[C@H](CCCCN)NC(=O)N[C@@H](Cc1c[nH]c2ccccc12)C(=O)O)C(=O)N/C=C1\\O[C@@H](n2ccc(=O)[nH]c2=O)[C@H](O)[C@@H]1O)N(C)C(=O)[C@@H](N)Cc1cccc(O)c1", "values": [{"measurement": "IC50", "setting": "[1]", "result": 1.8, "unit": "nM"}, {"measurement": "MIC", "setting": "Pseudomonas aeruginosa", "result": "> 128", "unit": "µg/mL"}]}
{"smiles": "C[C@@H]([C@H](NC(=O)[C@H](CCC(N)=O)NC(=O)N[C@@H](Cc1c[nH]c2ccccc12)C(=O)O)C(=O)N/C=C1\\O[C@@H](n2ccc(=O)[nH]c2=O)[C@H](O)[C@@H]1O)N(C)C(=O)[C@@H](N)Cc1cccc(O)c1", "values": [{"measurement": "IC50", "setting": "[1]", "result": 1.3, "unit": "nM"}, {"measurement": "MIC", "setting": "Pseudomonas aeruginosa", "result": 128, "unit": "µg/mL"}]}
{"smiles": "C[C@@H]([C@H](NC(=O)[C@H](CC(N)=O)NC(=O)N[C@@H](Cc1c[nH]c2ccccc12)C(=O)O)C(=O)N/C=C1\\O[C@@H](n2ccc(=O)[nH]c2=O)[C@H](O)[C@@H]1O)N(C)C(=O)[C@@H](N)Cc1cccc(O)c1", "values": [{"measurement": "IC50", "setting": "[1]", "result": 2.1, "unit": "nM"}, {"measurement": "MIC", "setting": "Pseudomonas aeruginosa", "result": "> 128", "unit": "µg/mL"}]}
{"smiles": "C[C@@H]([C@H](NC(=O)[C@H](Cc1cnc[nH]1)NC(=O)N[C@@H](Cc1c[nH]c2ccccc12)C(=O)O)C(=O)N/C=C1\\O[C@@H](n2ccc(=O)[nH]c2=O)[C@H](O)[C@@H]1O)N(C)C(=O)[C@@H](N)Cc1cccc(O)c1", "values": [{"measurement": "IC50", "setting": "[1]", "result": 2.8, "unit": "nM"}, {"measurement": "MIC", "setting": "Pseudomonas aeruginosa", "result": "> 128", "unit": "µg/mL"}]}
{"smiles": "C[C@@H]([C@H](NC(=O)[C@@H]1CCCN1C(=O)N[C@@H](Cc1c[nH]c2ccccc12)C(=O)O)C(=O)N/C=C1\\O[C@@H](n2ccc(=O)[nH]c2=O)[C@H](O)[C@@H]1O)N(C)C(=O)[C@@H](N)Cc1cccc(O)c1", "values": [{"measurement": "IC50", "setting": "[1]", "result": "> 500", "unit": "nM"}, {"measurement": "MIC", "setting": "Pseudomonas aeruginosa", "result": "> 128", "unit": "µg/mL"}]}
